Measurements published in ChEMBL document CHEMBL5143721, “Novel Hydroxychalcone-Based Dual Inhibitors of Aldose Reductase and α-Glucosidase as Potential Therapeutic Agents against Diabetes Mellitus and Its Complications” (J Med Chem, 2022).

Columns and labels:
[1] = Inhibition of Wistar rat lens ALR2 using D,L-glyceraldehyde as substrate preincubated for 10 mins in presence of NADPH followed by substrate addition and measured after 4 mins; assay type: tissue-based
[2] = Inhibition of Wistar rat kidney ALR1 using sodium D-glucuronate as substrate preincubated for 10 mins in presence of NADPH followed by substrate addition and measured after 4 mins; assay type: tissue-based
[3] = organism: Rattus norvegicus; experiment: Selectivity index, ratio of IC50 for Wistar rat kidney ALR1 to IC50 for Wistar rat lens ALR2
[4] = Antioxidant activity assessed as DPPH radical scavenging activity at 100 uM incubated for 30 mins by DPPH assay relative to control; assay type: functional
[5] = Inhibition of Saccharomyces cerevisiae Alpha-glucosidase using p-nitrophenyl glucopyranoside as substrate preincubated for 5 mins followed by substrate addition and measured for 30 mins
[6] = Antioxidant activity assessed as DPPH radical scavenging activity at 50 uM incubated for 30 mins by DPPH assay relative to control; assay type: functional
[7] = Antioxidant activity assessed as DPPH radical scavenging activity at 10 uM incubated for 30 mins by DPPH assay relative to control; assay type: functional
[8] = tested on: Brain; experiment: Antioxidant activity in rat brain homogenate assessed as inhibition of lipid peroxidation by measuring MDA concentration at 100 uM by TBARS assay relative to control; assay type: functional, tissue-based; design: scale not given: the % may be the effect or the level left
[9] = tested on: Brain; experiment: Antioxidant activity in rat brain homogenate assessed as inhibition of lipid peroxidation by measuring MDA concentration at 50 uM by TBARS assay relative to control; assay type: functional, tissue-based; design: scale not given: the % may be the effect or the level left
[10] = Octanol/buffer distribution coefficient, log D of compound at pH 7.4 incubated for 24 hrs by shake flask based HPLC method; assay type: physicochemical
[11] = tested on: Rattus norvegicus; experiment: Antidiabetic activity against STZ-induced diabetic Sprague-Dawley rat model assessed as reduction in fasting blood glucose level at 80 mg/kg, IG administered once daily for 28 days; assay type: functional; design: scale not given: the % may be the effect or the level left; settings: time 28 day
[12] = In vivo inhibition of ALR2 in STZ-induced diabetic Sprague-Dawley rat model assessed as reduction in ALR2 activity in lens at 80 mg/kg, IG administered once daily for 28 days relative to control; assay type: functional; design: scale not given: the % may be the effect or the level left; settings: time 28 day
[13] = tested on: Rattus norvegicus; experiment: Antidiabetic activity against STZ-induced diabetic Sprague-Dawley rat model assessed as reduction in fasting blood glucose level at 100 mg/kg, IG administered once daily for 28 days; assay type: functional; design: scale not given: the % may be the effect or the level left; settings: time 28 day
[14] = tested on: Brain; experiment: Antioxidant activity in rat brain homogenate assessed as inhibition of lipid peroxidation by measuring MDA concentration at 1 uM by TBARS assay relative to control; assay type: functional, tissue-based; design: scale not given: the % may be the effect or the level left
[15] = Antioxidant activity assessed as DPPH radical scavenging activity at 5 uM incubated for 30 mins by DPPH assay relative to control; assay type: functional
[16] = Antioxidant activity assessed as DPPH radical scavenging activity at 1 uM incubated for 30 mins by DPPH assay relative to control; assay type: functional
[17] = tested on: Brain; experiment: Antioxidant activity in rat brain homogenate assessed as inhibition of lipid peroxidation by measuring MDA concentration at 5 uM by TBARS assay relative to control; assay type: functional, tissue-based; design: scale not given: the % may be the effect or the level left
[18] = tested on: Brain; experiment: Antioxidant activity in rat brain homogenate assessed as inhibition of lipid peroxidation by measuring MDA concentration at 10 uM relative to control; assay type: functional, tissue-based; design: scale not given: the % may be the effect or the level left
[19] = organism: Rattus norvegicus; experiment: Non competitive inhibition of Wistar rat lens ALR2 using D,L-glyceraldehyde as substrate up to 200 uM by Lineweaver-Burk plot analysis; assay type: tissue-based
[20] = tested on: Saccharomyces cerevisiae; experiment: Non competitive inhibition of Saccharomyces cerevisiae alpha-glucosidase using p-nitrophenyl glucopyranoside as substrate up to 200 uM by Lineweaver-Burk plot analysis

SMILES | IC50 [1] | IC50 [2] | Ratio IC50 [3] | IC50 [5] | Activity [7] | Activity [8] | Activity [9] | other results
O=C(/C=C/c1ccc(O)c(C(F)(F)F)c1)c1cccc2[nH]c(=O)oc12 | > 100 µM | > 100 µM | – | – | – | – | – | –
COC(=O)Cn1c(=O)oc2c(C(=O)/C=C/c3ccc(O)cc3OC)cccc21 | 0.826 µM | > 100 µM | > 121 | – | – | – | – | –
COc1cc(O)ccc1/C=C/C(=O)c1cccc2[nH]c(=O)oc12 | 16.7 µM | > 100 µM | > 5.98 | – | – | – | – | –
COC(=O)Cn1c(=O)oc2c(C(=O)/C=C/c3ccc(O)c(Cl)c3)cccc21 | 12.2 µM | > 100 µM | > 8.82 | – | – | – | – | –
COC(=O)Cn1c(=O)oc2c(C(=O)/C=C/c3cccc(O)c3)cccc21 | > 100 µM | > 100 µM | – | – | – | – | – | –
COC(=O)Cn1c(=O)oc2c(C(=O)/C=C/c3ccc(O)c(F)c3)cccc21 | 0.518 µM | > 100 µM | > 193 | 57.2 µM | 5.09% | 40.1% | 25.4% | Activity [4]: 40.1%; Activity [6]: 19.2%; logD at 24 h [10]: 1.31
CC(C)=CCn1c(=O)oc2c(C(=O)/C=C/c3cc(F)c(O)c(F)c3)cccc21 | 0.097 µM | 4.75 µM | 49 | 59.9 µM | 9.1% | 38.3% | 25.9% | Activity [4]: 52.9%; Activity [6]: 35%; logD at 24 h [10]: 1.13
CC(/C=C1\SC(=S)N(CC(=O)O)C1=O)=C\c1ccccc1 | 0.119 µM | 5.29 µM | 44.5 | – | – | – | – | logD at 24 h [10]: 0.21; Activity [11]: 20.9%; Activity [12]: 62.1%
CN(C)C(=N)NC(=N)N [METFORMIN] | – | – | – | – | – | – | – | Activity [13]: 38.5%
COC(=O)Cn1c(=O)oc2ccc(/C=C/c3ccc(O)cc3)cc21 | > 100 µM | – | – | – | – | – | – | –
O=C(/C=C/c1cccc(O)c1)c1cccc2[nH]c(=O)oc12 | > 100 µM | > 100 µM | – | – | – | – | – | –
COc1ccc(/C=C/C(=O)c2cccc3[nH]c(=O)oc23)cc1 | > 100 µM | > 100 µM | – | – | – | – | – | –
O=C(/C=C/c1ccc(O)cc1)c1cccc2[nH]c(=O)oc12 | 2.85 µM | > 100 µM | > 35.1 | 104 µM | – | – | – | –
O=C(/C=C/c1cc(F)c(O)c(F)c1)c1cccc2[nH]c(=O)oc12 | 0.491 µM | 1.41 µM | 2.87 | 107 µM | – | – | – | –
COC(=O)Cn1c(=O)oc2c(C(=O)/C=C/c3cc(F)c(O)c(F)c3)cccc21 | 0.111 µM | 7.84 µM | 70.7 | 71.2 µM | 9.1% | 28% | 20.9% | Activity [4]: 52.9%; Activity [6]: 35%; logD at 24 h [10]: 1.07
COC(=O)Cn1c(=O)oc2c(C(=O)/C=C/c3ccc(O)c(C(F)(F)F)c3)cccc21 | 56.1 µM | > 100 µM | > 1.78 | – | – | – | – | –
Cc1c(C)c2c(c(C)c1O)CCC(C)(C(=O)O)O2 (centres undefined) | – | – | – | – | 86.3% | 79.2% | 47.5% | Activity [14]: 3.39%; Activity [15]: 46.7%; Activity [16]: 8.63%; Activity [17]: 15.5%; Activity [18]: 31.9%
CC(C)=CCn1c(=O)oc2c(C(=O)/C=C/c3ccc(O)c(F)c3)cccc21 | 0.517 µM | > 100 µM | > 193 | 52.1 µM | 12.7% | 33.3% | 22.4% | Activity [4]: 53.8%; Activity [6]: 32.5%; logD at 24 h [10]: 1.64
COC(=O)Cn1c(=O)oc2c(/C=C/c3ccc(O)cc3)cccc21 | 11.7 µM | – | – | – | – | – | – | –
COC(=O)Cn1c(=O)oc2cc(/C=C/c3ccc(O)cc3)ccc21 | 72.2 µM | – | – | – | – | – | – | –
COc1cc(/C=C/C(=O)c2cccc3[nH]c(=O)oc23)ccc1O | > 100 µM | > 100 µM | – | – | – | – | – | –
COC(=O)Cn1c(=O)oc2c(C(=O)/C=C/c3ccc(OC)cc3)cccc21 | > 100 µM | > 100 µM | – | – | – | – | – | –
O=C(/C=C/c1ccc(O)c(Cl)c1)c1cccc2[nH]c(=O)oc12 | > 100 µM | > 100 µM | – | – | – | – | – | –
CC(C)=CCCn1c(=O)oc2c(C(=O)/C=C/c3ccc(O)c(O)c3)cccc21 | 0.13 µM | 10.3 µM | 79.3 | 4.13 µM | 94.4% | 96.4% | 92.5% | Activity [14]: 34.2%; Activity [4]: 98.5%; Activity [6]: 97%; Activity [15]: 89.8%; Activity [16]: 44.7%; Activity [17]: 63.2%; Km [19]: 585 µM; Km [20]: 449 µM; logD at 24 h [10]: 1.04; Activity [18]: 73%
O=c1[nH]c2cccc(/C=C/c3ccc(O)cc3)c2o1 | 495 µM | – | – | – | – | – | – | –
O=C(/C=C/c1ccc(O)c(F)c1)c1cccc2[nH]c(=O)oc12 | 3.74 µM | 3.75 µM | 1.19 | 105 µM | – | – | – | –
CC(C)=CCn1c(=O)oc2c(C(=O)/C=C/c3ccc(O)cc3)cccc21 | 0.201 µM | > 100 µM | > 498 | 41.5 µM | 7.1% | 38.7% | 27% | Activity [4]: 39.1%; Activity [6]: 18.3%; logD at 24 h [10]: 1.65
O=C(/C=C/c1ccc(O)c(O)c1)c1cccc2[nH]c(=O)oc12 | 3.54 µM | 2.12 µM | 0.595 | 63.7 µM | – | – | – | –
COC(=O)Cn1c(=O)oc2c(C(=O)/C=C/c3ccc(O)cc3)cccc21 | 0.226 µM | > 100 µM | > 415 | 55.4 µM | 10.6% | 38% | 24.1% | Activity [4]: 46.3%; Activity [6]: 30%; logD at 24 h [10]: 1.46
COC(=O)Cn1c(=O)oc2c(C(=O)/C=C/c3ccc(O)c(OC)c3)cccc21 | 13.2 µM | > 100 µM | > 7.59 | – | 50.3% | 66.1% | 43% | Activity [4]: 92.4%; Activity [6]: 82.2%; Activity [15]: 25.4%; Activity [16]: 14.8%; Activity [18]: 23.6%
